Source: PubChem BioAssay (NCI)
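96-well plates; 48 h exposure; 5 concentrations. Endpoints by linear interpolation between flanking doses. Not reached: highest tested concentration assigned. GI50 is the concentration that inhibits growth by half. TGI denotes the concentration required for complete inhibition of growth.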 *1 amine or outer side, *2 acyl side, *3 side chain or, on linkers, in order; H or OH if unused. Where a SMILES comes first, the peptide text is derived from it. [ ]: non-standard residue; d: D form. The star is where a group is joined. X31 = CC(=O)N(C)SCC(N[*:1])C(=O)[*:2]; Cbz = O=C(OCc1ccccc1)*; Bn = c1ccc(C*)cc1

Key:
Experiment in all cases: growth of human tumour cells (NCI), 48 h
RPMI-8226 leukemia = tested on: RPMI-8226 leukemia
DU-145 prostate = tested on: DU-145 prostate
NCI-H460 lung = tested on: NCI-H460 lung
UACC-62 melanoma = tested on: UACC-62 melanoma
SF-268 CNS = tested on: SF-268 CNS
OVCAR-8 ovarian = tested on: OVCAR-8 ovarian
HOP-92 NSCLC = tested on: HOP-92 NSCLC
HL-60(TB) leukemia = tested on: HL-60(TB) leukemia
K-562 leukemia = tested on: K-562 leukemia
MCF7 breast = tested on: MCF7 breast
MALME-3M melanoma = tested on: MALME-3M melanoma
SNB-19 CNS = tested on: SNB-19 CNS
SR leukemia = tested on: SR leukemia
SF-539 CNS = tested on: SF-539 CNS
TK-10 renal = tested on: TK-10 renal
U251 CNS = tested on: U251 CNS
SK-MEL-28 melanoma = tested on: SK-MEL-28 melanoma
MDA-MB-231 breast = tested on: MDA-MB-231 breast
KM12 colon = tested on: KM12 colon

| Structure (SMILES) | TGI (RPMI-8226 leukemia) [µM] | TGI (DU-145 prostate) [µM] | TGI (NCI-H460 lung) [µM] | TGI (UACC-62 melanoma) [µM] | TGI (SF-268 CNS) [µM] | TGI (OVCAR-8 ovarian) [µM] | TGI (HOP-92 NSCLC) [µM] | TGI (HL-60(TB) leukemia) [µM] | TGI (K-562 leukemia) [µM] | TGI (MCF7 breast) [µM] | TGI (MALME-3M melanoma) [µM] | TGI (SNB-19 CNS) [µM] | TGI (SR leukemia) [µM] | TGI (SF-539 CNS) [µM] | GI50 (TK-10 renal) [µM] | TGI (TK-10 renal) [µM] | TGI (U251 CNS) [µM] | TGI (SK-MEL-28 melanoma) [µM] | TGI (MDA-MB-231 breast) [µM] | TGI (KM12 colon) [µM] |
| --- | --- | --- | --- | --- | --- | --- | --- | --- | --- | --- | --- | --- | --- | --- | --- | --- | --- | --- | --- | --- |
| CCOC(=O)C(=O)/C(=C/N1C(=O)CC(=O)NC1=S)C(=O)OCC | > 100 | > 100 | > 100 | > 100 | > 100 | > 100 | > 92.9 | > 100 | > 100 | > 100 | > 100 | > 100 | > 100 | > 100 | > 100 | > 100 | > 100 | > 100 | > 100 | > 100 |
| Cc1cccc(-c2cc(=O)c3c(C)cc(C)nc3[nH]2)c1 | > 52.1 | > 100 | 16.6 | > 100 | > 100 | > 100 | > 100 | 4.34 | 32.3 | > 100 | > 100 | > 100 | 9.3 | 12.1 |  | > 100 | 37.6 | > 100 | 31.8 | 21.9 |
| c1ccc2c(c1)NC1(N3CCCCC3)CCCCC21 (stereo not drawn) | > 100 | > 100 | > 100 | > 100 | > 100 | > 100 | 84 | 82.2 | > 100 | > 100 | > 100 | > 100 | > 100 | > 100 |  | > 100 | > 100 | > 100 | > 100 | > 100 |
| OCCOc1ccccc2cccc1-2 | > 100 | > 100 | > 100 | > 100 | > 100 | > 100 | > 100 | > 100 | > 100 | > 100 | > 100 | > 100 | > 100 | > 100 |  | > 100 | > 100 | > 100 | > 100 | > 100 |
| CCOC(=O)C(NC(=O)c1ccccc1)(Nc1ccc(Cl)cc1C(F)(F)F)C(F)(F)F (stereo not drawn) | > 100 | > 100 | > 52.3 | 27.4 | > 100 | > 100 | 50.7 | 5.04 | > 26.7 | > 100 | 22.1 | > 100 | > 24 | > 88.6 |  | > 100 | 19 | > 100 | 77.2 | 5.17 |
| O=C(CNC(c1ccccc1)(c1ccccc1)c1ccccc1)NC1CCCCC1NC(=O)CNC(c1ccccc1)(c1ccccc1)c1ccccc1 (stereo not drawn) | > 100 | > 100 | > 100 | > 100 | > 100 | > 100 | 78.7 | > 100 | > 100 | > 100 | > 100 | > 100 | > 100 | > 100 |  | > 100 | > 100 | > 100 | > 100 | > 100 |
| COC(=O)[C@H](Cc1ccc(OC(C)(C)C)cc1)N[C@H](C)C(=O)N[C@@H](Cc1ccccc1)C(=O)OCc1ccccc1 | > 100 | > 100 | > 100 | > 100 | > 100 | > 100 | > 100 | > 100 | 63.5 | 81.5 | > 100 | > 100 | 70.5 | > 100 |  | > 100 | > 100 | > 100 | > 100 | > 100 |
| O=C(CCCl)NNC1=NCCCN1 | > 100 | > 100 | > 100 | > 100 | > 100 | > 100 | > 100 | > 100 | > 100 | > 100 | > 100 | > 100 | > 100 | > 100 |  | > 100 | > 100 | > 100 | > 100 | > 100 |
| COc1ccc2nc3ccc(OC)cc3c(SCc3ccccc3)c2c1 | > 100 | > 100 | > 100 | > 100 | > 100 | > 100 | > 100 | > 100 | > 100 | > 100 | > 100 | > 100 | > 100 | > 100 |  | > 100 | > 100 | > 100 | > 100 | > 100 |
| CC(C)Cc1cc2c(cc1O)CCC1C2CC[C@@]2(C)C1CC[C@@H]2O (stereo partly drawn) | 20.4 | 23.1 | 25.5 | 21.2 | 39.4 | 22.3 | 26.6 | 8 | 19.6 | 25.9 | 37 | 21.1 | 19.8 | 40.6 |  | 23.1 | 27 | 28.8 | 20 | 17.4 |
| C[C@@H](NC(=O)c1ccc(CNC(=O)/C=C/c2cccc(Oc3ccccc3)c2)cc1)c1ccccc1 | > 100 | > 100 | > 100 | > 100 | 78 | > 100 | > 100 | > 100 | > 100 | > 100 | > 100 | > 52.2 | > 100 | 30.6 |  | > 89.2 | > 100 | > 100 | > 100 | > 100 |
| CCOP(=O)(OCC)/C(C#N)=C/c1cnc[nH]1 | > 100 | > 100 | > 100 | > 100 | > 100 | > 100 | > 100 | > 100 | > 100 | > 100 | > 100 | > 100 | > 100 | > 100 |  | > 100 | > 100 | > 100 | > 100 | > 100 |
| CN(c1cn(C2CC[C@@H](CO)O2)c(=O)[nH]c1=O)C1CCCCC1 (stereo partly drawn) | > 100 | > 100 | > 100 | > 100 | > 100 | > 100 | > 100 | > 100 | > 100 | > 100 | > 100 | > 100 | > 100 | > 100 |  | > 100 | > 100 | > 100 | > 100 | > 100 |
| COC(=O)/C=C/C1(O)C=CC(=O)C=C1 | > 100 | 9.57 | > 61.7 | 7.43 | 5.84 | > 100 | > 32.1 | 6.8 | > 100 | 13.2 | 8.26 | 18.1 | 10.7 | 4.45 |  | 16.4 | > 26.5 | > 19.8 | 5.37 | 5.61 |
| c1ccc2c(c1)CCc1[nH]c3c(c1-2)-c1ccccc1CC3 | > 100 | > 100 | > 100 | > 100 | > 100 | > 100 | > 100 | > 100 | > 100 | > 100 | > 100 | > 100 | > 100 | > 100 |  | > 100 | > 100 | > 100 | > 100 | > 100 |
| CC(=O)N(C)SCC(NC(=O)C(Cc1ccccc1)NC(=O)OCc1ccccc1)C(=O)NC(Cc1ccccc1)C(=O)NC(Cc1c[nH]c2ccccc12)C(=O)NC(CCCCNC(=O)OCc1ccccc1)C(=O)NC(C(=O)NC(CSN(C)C(C)=O)C(=O)NC(C(N)=O)C(C)OCc1ccccc1)C(C)OCc1ccccc1 (stereo not drawn) (Cbz-F[X31]FWK(Cbz)T(Bn)[X31]T(Bn)-NH2; configuration not given here) | > 100 | > 100 | > 100 | > 100 | > 100 | > 100 | > 100 | > 100 | > 100 | > 100 | > 100 | > 100 | > 100 | > 100 |  | > 100 | > 100 | > 100 | > 100 | > 100 |
| CC(=O)C1=C(C)N(c2ccc(C)cc2)C2(O)C3=C(C(=O)c4ccccc4C3=O)C(O)=CC12Cl (stereo not drawn) | > 100 | > 100 | > 100 | 26.5 | > 100 | 53.4 | > 100 | > 100 | > 100 | > 100 | 36.5 | 35.8 | > 100 | > 100 |  | 97 | > 100 | 79.4 | > 100 | 33.8 |
| O=C(C/C(=N/O)c1cc(-c2ccccc2)no1)c1ccccc1 | > 100 | > 100 | > 100 | > 100 | 42.5 | 40.3 | 58 | 74.6 | > 100 | > 100 | > 100 | 73.3 | > 100 | 35 |  | > 100 | 60.5 | > 100 | 46.1 | > 100 |
| Nc1nc2c(ncn2Cc2ccccc2CO)c(=O)[nH]1 | > 100 | > 100 | > 100 | > 100 | > 100 | > 100 | > 100 | > 100 | > 100 | > 100 | > 100 | > 100 | > 100 | > 100 |  | > 100 | > 100 | > 100 | > 100 | > 100 |
| CCOC(=O)C(C(=S)SC)c1nn2c(=O)cc(C)nc2s1 (stereo not drawn) | 48.7 | 32.8 | 35.6 | 47.6 | 34 | 35.5 | 43.9 | 35.3 | 34.9 | 33.1 | 31 | 43.7 | 47.1 | 36 |  | 61.9 | 30.6 | 34.8 | 37.9 | 65.3 |
| Cc1ccc2nc(C=Nc3ccc(Cl)cc3)cc(C)c2c1 | > 51.3 | > 100 | > 70.6 | 40 | 59.2 | 23.3 | 81 | 16.7 | > 39.5 | 83.7 | > 64.9 | > 100 | 11.6 | 12.8 |  | 57 | 32.9 | 36.4 | 27.3 | 24.7 |
| C=C(CN1CC2C[C@](C(=O)OC)(c3cc4ccccc4[nH]3)C1C(OC)C2OC)S(=O)(=O)c1ccccc1 (stereo partly drawn) | 6.06 | 14.1 | 12 | 14.8 | 15.8 | 12.6 | 8.33 | 5.12 | 10.6 | 18.9 | 7.38 | 24.3 | 5.91 | 16.9 |  | 17.4 | 8.52 | 25.5 | 10.9 | 10.7 |
| CN1CCC2(CC1)C(=NC1CCCCC1)NC(=S)N2c1ccccc1 | > 100 | > 100 | > 100 | > 100 | > 100 | > 100 | > 100 | > 100 | > 100 | > 100 | > 100 | > 100 | > 100 | > 100 |  | > 100 | > 100 | > 100 | > 100 | > 100 |
